Reference: publication PMC3465347, “Regulation of NF-κB Activation through a Novel PI-3K-Independent and PKA/Akt-Dependent Pathway in Human Umbilical Vein Endothelial Cells” (PLoS ONE, 2012)

Legend:
[1] = system: NF-κB DNA-binding activity in HUVECs; experiment: NF-κB activation assay (EMSA) in nuclear extracts; type: cell-based, human; conditions: wortmannin 100 µM or H-89 20 µM, 30 mins, then TNF-α 10 ng/ml
Method: The endothelial cells were subjected to the indicated treatments followed by induction with TNF-α for indicated time points or 30 mins. The cells were then washed with PBS and dislodged using a cell scraper. The cytoplasmic and nuclear extracts were prepared as described previously, [46].
NF-κB activation in the nuclear extracts of human endothelial cells was assessed by electrophoretic mobility shift assay (EMSA) as described previously, [46]. For supershift experiment, nuclear extracts prepared from unstimulated and TNF-α-stimulated cells were incubated with antibodies against the p50 or p65 subunit of NF-κB or -α-tubulin for 15 mins at 37°C before the complex was analyzed by EMSA. Addition of equal amount of radioactive-labelled probe to all the samples was indicated by the similar intensity of the unincorporated probe observed towards the end of the gel.

[2] = system: Akt phosphorylation in HUVECs; experiment: Akt phosphorylation western blot; type: cell-based, human; conditions: wortmannin 100 µM or H-89 20 µM, 30 mins, then TNF-α 10 ng/ml 30 mins
Method: Nuclear and cytoplasmic extracts were fractionated on SDS-PAGE with equal amount of proteins per well and transferred onto PVDF membranes and those membranes were incubated with appropriate primary antibodies and treated with HRP conjugated secondary antibodies followed by detection with DAB-H2O2 system. β-tubulin, α-actin and Lamin B1 were used as loading controls. Antibodies against NF-κBp65, phosphoNF-κBp65, IκBα, phosphoIκBα, IKK-β, Akt, phosphoAkt (Ser473) and phosphoAkt (Thr308) were used.

PKA = molecular target: T1, PKA (Homo sapiens, UniProt P17612); experiment: PKA activity assay; type: cell-based
T1 construct: PKA was immunoprecipitated from the total cell lysates of unstimulated and TNF-α-stimulated endothelial cells; endogenous in cells; host or cells: HUVEC (treated with MPTAG, SQ 22536, H-89 ± TNF-α), anti-PKAα immunoprecipitate
From the text: PKA was immunoprecipitated from the total cell lysates of unstimulated and TNF-α-stimulated endothelial cells in presence and absence of treatment with agents indicated in Figure 7 using anti-PKAα (W-18) antibody. The immunoprecipates were subjected to kinase activity assay using a Bisamide Rhodamine 110 peptide substrate as per the instructions of the Profluor PKA assay kit (Promega, USA).

[3] = system: TNF-α-induced ICAM-1 expression on human endothelial cells; set-up: method as in PMID 21315792; conditions: dose-dependent; cited from earlier work
[4] = system: TNF-α-induced VCAM-1 expression on human endothelial cells; set-up: method as in PMID 21315792; conditions: dose-dependent; cited from earlier work
[5] = system: TNF-α-induced E-selectin expression on human endothelial cells; set-up: method as in PMID 21315792; conditions: dose-dependent; cited from earlier work
[6] = system: adhesion of neutrophils to the endothelium monolayer; set-up: method as in PMID 21315792; conditions: dose-dependent; cited from earlier work
PI-3K = PI-3K activity assay; type: cell-based, human; conditions: pretreatment, HUVECs
From the text: The catalytic domain of PI-3K was immunoprecipitated from the stimulated and unstimulated endothelial in presence and absence of various compound treatment using an anti-p85α (N-18) antibody. The immunoprecipated proteins were subjected to kinase activity assay using a PI substrate, diC8 followed by detection of the PI(3)P as per the instructions of the Class III PI-3kinase kit (Echelon, USA).

Structure (SMILES): O=S(=O)(NCCNC/C=C/c1ccc(Br)cc1)c1cccc2cnccc12 [H-89, reference compound]
- TNF-α-induced NF-κB activation (EMSA), kinase inhibitor alone [1]: enhanced
- TNF-α-induced Akt phosphorylation (Thr308), kinase inhibitor alone [2]: enhanced
- PKA activity (PKA; H-89 treatment, even in presence of MPTAG): inhibited

Structure (SMILES): Cc1occc(=O)c1O[C@@H]1O[C@H](CO)[C@@H](O)[C@H](O)[C@H]1O [MPG, 2-methyl-pyran-4-one-3-O-β-D-glucopyranoside]
- inhibition of TNF-α-induced ICAM-1 expression [3]: inhibited
- inhibition of TNF-α-induced VCAM-1 expression [4]: inhibited
- inhibition of TNF-α-induced E-selectin expression [5]: inhibited
- inhibition of adhesion of neutrophils to the endothelium monolayer [6]: inhibited

Structure (SMILES): Nc1ncnc2c1ncn2C1CCCO1 (centres unmarked) [SQ 22536, reference compound]
- PKA activity in unstimulated HUVECs (PKA; SQ 22536 treatment alone): moderately suppressed

Structure (SMILES): COC[C@H]1OC(=O)c2coc3c2[C@@]1(C)C1=C(C3=O)[C@@H]2CCC(=O)[C@@]2(C)C[C@H]1OC(C)=O [wortmannin, Wortmannin, reference compound]
- TNF-α-induced NF-κB activation (EMSA), kinase inhibitor alone [1]: inhibited
- TNF-α-induced Akt phosphorylation (Thr308), kinase inhibitor alone [2]: inhibited
- TNF-α-induced PI-3K activity (PI-3K): abolished
